Data published in patent publication US8097238B2, “Cell targeting conjugates” (Peter MacCallum Cancer Institute, priority 2004, dated 2012).
Values joined by “and” are separate entries in the source; they are usually repeats but may differ in a detail not shown here. Identical values can stand only once.

What was measured:
[1] = test system: plasmid DNA; experiment: Plasmid DNA breakage, ^123I/^125I double isotope method; format: biochemical
Text: The experimental design exploits the plasmid DNA assay system, and agarose gel electrophoresis, as described previously to evaluate DNA breakage by the labelled minor groove binding DNA ligand, ^125I-iodoHoechst 33258 (Lobachevsky, Karagiannis and Martin 2004).
The accumulation of DNA single-stranded breaks and DNA double-stranded breaks is monitored by quantitation of the decline in the fraction of intact supercoiled plasmid (S), and the corresponding increase in the fractions of relaxed (R) and linear (L) species, with the progressive accumulation of decay events. Various assumptions enable the derivation of the relationship between the parameters S, R and L (or their normalised counterparts S′, R′ and L′), the number of decay events (n), and for example, the yield of double-stranded breaks per decay (d) of isotope in DNA-bound ligand. […] Accordingly, a double isotope strategy was developed, using a mixture of ^123I- and ^125I-iodoHoechst 33258. This approach yields a ratio d values, providing an estimate of the relative efficiency (^123I relative to ^125I) for double-strand breaks per decay, which is independent of f.
The basis of the double isotope method is apparent from the following relationship:
Where n1 is the number of ^123I decays, and n1m is the maximum (ie at time=infinity) number of ^123I decays.
A plot of the LHS term of the above equation versus n2 (the number of ^125I decay events in the incubation mixture) yields a two phase curve, the 2nd phase of which approaches a straight line (when n1=n1m). The values for the apparent breakage DNA dsb efficiency of ^123I and ^125I decays (da1 and da2, respectively) are obtained from the y intercept and from the gradient of the asymptote of the second phase of the curve, as shown in FIG. 14.
The apparent breakage efficiency is related to the actual efficiency of DNA-bound decay events, d, by the expression: da=df+δA
Where δA is the term for the “external” component of damage, arising from decay of non-DNA-bound isotope, which can be ignored because of the particular conditions of the
[formula] experiment, particularly, a low DNA concentration, A. Thus analysis of the data as exemplified in FIG. 14 provides the ratio of breakage efficiencies of ^123I versus ^125I decays.

[2] = test system: K562 cells; experiment: K562 cell survival after incubation with labelled iodoHoechst 33258; format: cell-based, human; conditions: 500 nM for 1 hour at 37° C., decays accumulated at 5° C. for 24 hours
Method: Cells (5×10^5/ml) in RPMI-1640 medium containing 10% FBS and gentamicin were incubated with varying specific activities of ^127I/^123I-iodoHoechst 33258 (500 nM) for 1 hour at 37° C. Following incubation the cells were separated from the supernatant by 3 centrifugation (400×g for 3 minutes)-wash cycles. The cell pellets were suspended in RPMI medium and ^123I-decays were accumulated at 5° C. for 24 hours. Following accumulation of decays, the cell-pellets were isolated by centrifugation at 400×g for 3 minutes, suspended in AMEM containing 20% FBS and an appropriate cell number from each of the samples was cloned in semi-solid (0.33% (w/v)) noble agar in 6-well microtiter plates, as discussed above.

[3] = test system: K562 cells; conditions: survival curve studies (Karagiannis, Lobachevsky and Martin 2000); cited from earlier work

Structure (SMILES): CN1CCN(c2ccc3nc(-c4ccc5nc(-c6ccc(O)c(I)c6)[nH]c5c4)[nH]c3c2)CC1 [^123I-iodoHoechst 33258]
- da1(^123I), apparent DNA dsb breakage efficiency ([1]; DMSO added to 10% (D series)): 0.158 and 0.170 and 0.159
- da1(^123I)/da2(^125I) ([1]; DMSO added to 10% (D series)): 0.63 and 0.69 and 0.62
- Average da1(^123I)/da2(^125I) ([1]; DMSO added to 10% (D series), samples D1.2-D3.2): 0.65 ± 0.03
- da1(^123I), apparent DNA dsb breakage efficiency ([1]; aqueous buffer (N series)): 0.244 and 0.253 and 0.314
- da1(^123I)/da2(^125I) ([1]; aqueous buffer (N series)): 0.59 and 0.64 and 0.66
- Average da1(^123I)/da2(^125I) ([1]; aqueous buffer (N series), samples N1.2-N3.2): 0.63 ± 0.03
- decays required for a lethal event [2]: about 230 ^123I-decays per cell

Structure (SMILES): CN1CCN(c2ccc3nc(-c4ccc5nc(-c6ccc(O)c(I)c6)[nH]c5c4)[nH]c3c2)CC1 [^125I-iodoHoechst 33258, reference compound]
- da2(^125I), apparent DNA dsb breakage efficiency ([1]; DMSO added to 10% (D series)): 0.252 and 0.248 and 0.258
- da2(^125I), apparent DNA dsb breakage efficiency ([1]; aqueous buffer (N series)): 0.413 and 0.397 and 0.474
- decays corresponding to a lethal event [3]: about 130 ^125I decays per nucleus
